For data set [1], the system named is NFκB. Briefly: NFκB reporter assay stimulated with LPS (THP1-XBlue-MD2-GD14 reporter cells, SEAP read-out). Type of data set: cell-based. Particulars: peptide 50 μg/ml before LPS 5 ng/ml, overnight. The protocol:
The reporter cells (THP1-XBlue-MD2-GD14 cells) were treated with each peptide (50 μg/ml) before being insulted with LIPS (5 ng/ml) and incubated overnight. The NFκB inducible Secreted Embryonic Alkaline Phosphatase (SEAP) was measured in the supernatant and read for absorbance.
On the technique in general: Reporter assays use an easily measured gene product as a stand-in for the process of interest.

For another data set, the system named is phospho-ERK1/2. Description: Cell signaling analysis in PC12 cells, immunoblot of phospho-ERK1/2. The data set is classed as cell-based, rat. The conditions noted are these: SP163M 24 or 240 nM, NGF 0.36 nM, RAP 150 nM pretreatment 15 min. The method, then: Cell signaling analysis: Rat PC12 cells were purchased from ATCC (CRL-1721). PC12 cells were maintained in high glucose DMEM (Gibco, USA) containing 10% heat-inactivated FBS (Gibco, USA), 5% HyClone heat-inactivated horse serum (Cytiva, USA), penicillin (100 units/ml) and streptomycin ([…]) in 6-well plates that were pre-coated with 0.01 mg/ml type IV collagen (Sigma-Aldrich, St. Louis, MO, USA). Cells were transferred to serum-free medium (SFM) 4 h prior to adding effectors, and then treated with SP163M (2.4, 24 or 240 nM); EI-tPA (12 nM), NGF (0.36 nM), or vehicle (PBS) for 10 min. In some cases, cells were pre-incubated with the competitive antagonist of LRP1, GST-RAP (150 nM) for 15 min or electroporated using the Rat Neuron Nucleofector Amaxa Kit (Lonza Biosciences) and incubated with siRNA to silence LRP1 expression (siLRP1; M-094191-01-0010, Dharmacon) for 48 h. Control cells were transfected with non-targeting control (NTC) siRNA (NTC; D-001810-10-05, Dharmacon). Cells were rinsed with ice-cold PBS and proteins were extracted in RIPA buffer (20 mM sodium phosphate, 150 mM NaCl, pH 7.4, 1% Triton X-100, 0.5% sodium deoxycholate, 0.1% SDS) supplemented with protease and phosphatase inhibitors (Roche Diagnostics, USA). After 30 min on ice, lysates were centrifuged at 15000×g for 5 min, supernatant collected and stored at −20° C. Equal amounts of protein from cell lysates (20 μg), as determined by BCA Protein Assay (ThermoFisher Scientific, Waltham, MA, USA), were subjected to 10% SDS-PAGE and electro-transferred to nitrocellulose membranes. The membranes were blocked with 5% nonfat dried milk and then incubated with primary anti-phospho-AKT (Cell Signaling Technology, Danvers, MA, USA; cat #9271S; 1:1000), anti-phospho-ERK1/2 (Cell Signaling Technology, Danvers, MA, USA; cat #9101S; 1:1000), anti-LRP1 (Cell Signaling Technology, Danvers, MA, USA; cat #64099S; 1:1000) or anti total-ERK1/2 (Cell Signaling Technology, Danvers, MA, USA; cat #91012S; 1:1000). Immunoblots were developed using Radiance, Radiance Q, and Radiance Plus chemiluminescent substrates and imaged using a BioRad ChemiDoc Imaging System (Bio-Rad, Hercules, CA, USA).
In general terms: Immunoblotting shows a protein as a band on a membrane.

Data set [2] is described as follows: Peptide stability as stated in Example 1 (no method described). The data set is classed as physicochemical. Particulars: stated as explanation of activity; no test described.
Data set [3] relates to NFκB. Description: NFκB reporter assay stimulated with LPS (THP1-XBlue-MD2-GD14 reporter cells, SEAP read-out). Type of data set: cell-based. Particulars: without LPS.
The next data set deals with phospho-STAT6. Description: IL-13 stimulated STAT6 phosphorylation in esophageal EPC2 cells (western blot). Type of data set: cell-based, human. The conditions noted are these: 30 minutes post IL-13 induction. The protocol: Esophageal EPC2 cells were treated with vehicle (ddw), A1AT or SP163M. Cells were collected at time-points indicated and western blot analysis of phospho-specific STAT6 was analyzed. […] Using CRISPER/CAS9 technology, an LRP1 knockout esophageal EPC2 cell line was created.

As for VRFNRPFLMII [SP28], the “NFκB activity (NFκB inducible SEAP in supernatant)” value (“NFκB activity” for short) with NFκB [1] was “lack of function”.

For “FPKMVPQFNTELKIFPEVNIK (FPKMVPQFNTELKIFPEVNIK) [SP34, reference compound]”, in the data set on NFκB [1], the “NFκB activity” value is given as “neither the scrambled core control peptide nor the AAT 0-36 fragment decreased the NFκB activity”.

For “R R R V R F N R P F L R R R (RRRVRFNRPFLRRR) [SP32]”, in the data set on NFκB [1], the “NFκB activity” value is listed as “could not be restored with the poly arginine flanks”.

As to “NGF: NGF-β purchased from Sigma, cell signaling control [reference compound]”, the “activation of phospho-ERK1/2 after 10 min, with or without RAP” value in the data set with phospho-ERK1/2 is “activated ERK1/2”.

Consider “VKFNKPFVFLM (SP16 peptide core sequence including the LRP1 binding site; listed as Homo sapiens) [SP20]”, for which the “NFκB activity” value in the data set on NFκB [1] is recorded as “did not have an inhibitory effect”. In addition, in data set [2], the peptide stability entry is on record as “unstable”.

In the case of “R R R V K F N K P F V F L M R R R (RRRVKFNKPFVFLMRRR; SP16 peptide core sequence including the LRP1 binding site) [SP22]”, the “NFκB activity” value in the data set with NFκB [1] is recorded as “NFκB activity was significantly reduced”.

Consider LRFNRPFLVVI [SP24], for which the “NFκB activity” value with NFκB [1] is given as “lack of function”.

Take V R F N R P F L (VRFNRPFL) [SP31]: the “NFκB activity” value in the data set on NFκB [1] was “anti-inflammatory activity of the peptide was lost”.

Turning to “R R R L R F N R P F L V V I R R R (RRRLRFNRPFLVVIRRR) [SP26]”, in the data set on NFκB [1], the “NFκB activity” value was “heightened activity”.

Turning to “SIPPEVKFNKPFVFLMIEQNTKSPLFMGKVVNP (SIPPEVKFNKPFVFLMIEQNTKSPLFMGKVVNP; SP16 peptide core sequence including the LRP1 binding site; listed as Homo sapiens) [SP8, reference compound]”, the “NFkB induction by the peptide itself” value in the data set on NFκB [3] is “showed NFkB inducible properties without the need for LPS”. Besides, in the data set on NFκB [1], the “NFκB activity” value was “neither the scrambled core control peptide nor the AAT 0-36 fragment decreased the NFκB activity”.

For the substance “RRRVKFNKPFVFLMIEQNTKRRR (RRRVKFNKPFVFLMIEQNTKRRR; SP16 peptide core sequence including the LRP1 binding site) [SP21]”, the “NFκB activity” value in the data set on NFκB [1] is “NFkB inhibition increased as well relative to SP16”. For the same substance, the peptide stability entry in data set [2] is given as “stability increased”.

As for “R R R V R F N R P F L M I I R R R (RRRVRFNRPFLMIIRRR) [SP29]”, the “NFκB activity” value in the data set on NFκB [1] is “heightened activity”.

As for “A1AT: alpha-1 antitrypsin, the prototypical SERPIN [Peptide A1AT]”, in the data set with phospho-STAT6, the STAT6 phosphorylation entry was “STAT6 was phosphorylated in vehicle and A1AT treated cells”.

The record behind these values is patent US20250161419A1, “SERPIN PEPTIDES AND METHODS OF USING THE SAME” (SERPIN PHARMA, LLC, priority 2022, published 2025).
